From patent publication US9745321B2, “Fused pyrimidine compound, intermediate, preparation method therefor, and composition and application thereof” (SHANGHAI YINGLI PHARMACEUTICAL CO., LTD, priority 2013, dated 2017)

Columns and labels:
PI3Kδ = PI3Kδ (Homo sapiens (Human), UniProt O00329); test: PI3Kδ enzyme activity inhibition IC50 evaluation assay; format: biochemical; settings: luminescence, 25 μM ATP, 50 μM PIP2, 2 hrs room temperature
Experimental: (§1) PI3Kα, PI3Kδ, PI3Kβ and PI3Kγ Enzyme Activity Inhibition IC50 Evaluation Assay
• 1. Buffer preparation: 50 mM HEPES, pH 7.5, 3 mM MgCl2, 1 mM EGTA, 100 mM NaCl, 0.03% CHAPS. • 2. Compound was formulated in 100% DMSO in a concentration gradient, and added to a 384-well plate to a final DMSO concentration of 1%. • 3. PI3Kα, PI3Kδ, PI3Kβ and PI3Kγ enzymes were diluted to an optimum concentration with the following buffer: 50 mM HEPES, pH 7.5, 3 mM MgCl2, 1 mM EGTA, 100 mM NaCl, 0.03% CHAPS, 2 mM DTT, and transferred to a 384-well plate and incubated with the compound for a certain time. • 4. […] For PI3Kβ and PI3Kγ, it was still necessary to further add 10 μL ADP-Glo Detection Reagent, and then equilibrated at room temperature for 30 minutes. • 5. Read Luminescense with FlexStation, and calculate the inhibition rate as the average of two tests.

PI3Kα = PI3Kα (Homo sapiens (Human), UniProt P42336); test: PI3Kα enzyme activity inhibition IC50 evaluation assay; format: biochemical; settings: ratio PI3Kα vs PI3Kδ
Experimental: as §1
• 1. Buffer preparation: 50 mM HEPES, pH 7.5, 3 mM MgCl2, 1 mM EGTA, 100 mM NaCl, 0.03% CHAPS. • 2. Compound was formulated in 100% DMSO in a concentration gradient, and added to a 384-well plate to a final DMSO concentration of 1%. • 3. PI3Kα, PI3Kδ, PI3Kβ and PI3Kγ enzymes were diluted to an optimum concentration with the following buffer: 50 mM HEPES, pH 7.5, 3 mM MgCl2, 1 mM EGTA, 100 mM NaCl, 0.03% CHAPS, 2 mM DTT, and transferred to a 384-well plate and incubated with the compound for a certain time. • 4. Substrate was diluted to an optimum concentration with the following buffer: 50 mM HEPES, pH 7.5, 3 mM MgCl2, 1 mM EGTA, 100 mM NaCl, 0.03% CHAPS, 2 mM DTT, 50 μM PIP2, 25 μM ATP; then added to a 384-well plate to initiate the reaction, and for PI3Kα, PI3Kβ and PI3Kγ at room temperature reacted for 1 hr, for PI3Kδ at room temperature reacted for 2 hrs. For PI3Kβ and PI3Kγ, it was still necessary to further add 10 μL ADP-Glo Detection Reagent, and then equilibrated at room temperature for 30 minutes. • 5. Read Luminescense with FlexStation, and calculate the inhibition rate as the average of two tests.

Chain of PI3Kδ (O00329 whole entry): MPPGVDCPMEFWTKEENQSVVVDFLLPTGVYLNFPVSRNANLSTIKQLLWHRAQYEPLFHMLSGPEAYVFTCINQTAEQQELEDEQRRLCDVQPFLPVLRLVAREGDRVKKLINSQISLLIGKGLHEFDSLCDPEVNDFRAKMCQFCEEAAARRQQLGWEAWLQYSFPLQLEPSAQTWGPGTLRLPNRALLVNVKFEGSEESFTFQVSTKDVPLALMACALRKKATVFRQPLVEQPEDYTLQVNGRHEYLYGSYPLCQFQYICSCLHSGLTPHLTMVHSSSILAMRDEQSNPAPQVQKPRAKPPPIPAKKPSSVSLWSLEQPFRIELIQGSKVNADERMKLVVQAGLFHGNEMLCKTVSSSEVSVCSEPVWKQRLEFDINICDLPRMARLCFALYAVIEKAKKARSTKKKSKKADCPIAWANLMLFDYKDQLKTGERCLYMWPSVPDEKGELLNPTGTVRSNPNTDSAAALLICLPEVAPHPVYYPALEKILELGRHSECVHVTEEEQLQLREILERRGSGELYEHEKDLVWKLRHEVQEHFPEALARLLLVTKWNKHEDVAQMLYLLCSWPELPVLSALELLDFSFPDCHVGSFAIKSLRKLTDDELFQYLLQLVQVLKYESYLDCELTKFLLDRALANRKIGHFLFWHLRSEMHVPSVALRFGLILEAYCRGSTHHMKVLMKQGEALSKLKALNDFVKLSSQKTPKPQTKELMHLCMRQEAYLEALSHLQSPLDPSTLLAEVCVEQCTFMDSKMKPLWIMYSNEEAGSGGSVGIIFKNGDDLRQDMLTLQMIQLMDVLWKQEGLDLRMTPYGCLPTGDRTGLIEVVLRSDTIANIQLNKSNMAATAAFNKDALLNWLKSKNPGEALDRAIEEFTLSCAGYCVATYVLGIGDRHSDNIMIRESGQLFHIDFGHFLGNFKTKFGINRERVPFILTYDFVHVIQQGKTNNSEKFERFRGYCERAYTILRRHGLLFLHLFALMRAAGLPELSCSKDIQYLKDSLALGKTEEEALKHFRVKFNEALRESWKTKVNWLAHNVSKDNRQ
Chain of PI3Kδ (P27986 whole entry partner): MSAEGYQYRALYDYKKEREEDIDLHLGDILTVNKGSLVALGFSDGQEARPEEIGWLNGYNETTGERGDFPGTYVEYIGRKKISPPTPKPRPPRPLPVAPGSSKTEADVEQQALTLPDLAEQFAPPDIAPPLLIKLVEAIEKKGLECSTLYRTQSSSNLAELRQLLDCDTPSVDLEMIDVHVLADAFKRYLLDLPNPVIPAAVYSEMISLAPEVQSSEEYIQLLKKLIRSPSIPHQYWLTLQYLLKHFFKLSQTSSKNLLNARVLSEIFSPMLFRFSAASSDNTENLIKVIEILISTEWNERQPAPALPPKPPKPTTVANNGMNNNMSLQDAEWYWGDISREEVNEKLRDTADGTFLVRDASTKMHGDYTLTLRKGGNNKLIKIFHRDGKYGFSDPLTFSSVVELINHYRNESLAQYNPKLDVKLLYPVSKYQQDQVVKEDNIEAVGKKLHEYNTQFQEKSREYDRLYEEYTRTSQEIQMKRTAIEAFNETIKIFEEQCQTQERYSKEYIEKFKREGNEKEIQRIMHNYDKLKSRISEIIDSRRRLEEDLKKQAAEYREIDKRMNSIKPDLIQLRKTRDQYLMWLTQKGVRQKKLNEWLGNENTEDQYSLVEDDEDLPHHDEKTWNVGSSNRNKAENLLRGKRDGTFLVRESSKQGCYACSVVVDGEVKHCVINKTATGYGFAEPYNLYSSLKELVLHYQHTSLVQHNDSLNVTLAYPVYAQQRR
Chain of PI3Kα (P42336 whole entry): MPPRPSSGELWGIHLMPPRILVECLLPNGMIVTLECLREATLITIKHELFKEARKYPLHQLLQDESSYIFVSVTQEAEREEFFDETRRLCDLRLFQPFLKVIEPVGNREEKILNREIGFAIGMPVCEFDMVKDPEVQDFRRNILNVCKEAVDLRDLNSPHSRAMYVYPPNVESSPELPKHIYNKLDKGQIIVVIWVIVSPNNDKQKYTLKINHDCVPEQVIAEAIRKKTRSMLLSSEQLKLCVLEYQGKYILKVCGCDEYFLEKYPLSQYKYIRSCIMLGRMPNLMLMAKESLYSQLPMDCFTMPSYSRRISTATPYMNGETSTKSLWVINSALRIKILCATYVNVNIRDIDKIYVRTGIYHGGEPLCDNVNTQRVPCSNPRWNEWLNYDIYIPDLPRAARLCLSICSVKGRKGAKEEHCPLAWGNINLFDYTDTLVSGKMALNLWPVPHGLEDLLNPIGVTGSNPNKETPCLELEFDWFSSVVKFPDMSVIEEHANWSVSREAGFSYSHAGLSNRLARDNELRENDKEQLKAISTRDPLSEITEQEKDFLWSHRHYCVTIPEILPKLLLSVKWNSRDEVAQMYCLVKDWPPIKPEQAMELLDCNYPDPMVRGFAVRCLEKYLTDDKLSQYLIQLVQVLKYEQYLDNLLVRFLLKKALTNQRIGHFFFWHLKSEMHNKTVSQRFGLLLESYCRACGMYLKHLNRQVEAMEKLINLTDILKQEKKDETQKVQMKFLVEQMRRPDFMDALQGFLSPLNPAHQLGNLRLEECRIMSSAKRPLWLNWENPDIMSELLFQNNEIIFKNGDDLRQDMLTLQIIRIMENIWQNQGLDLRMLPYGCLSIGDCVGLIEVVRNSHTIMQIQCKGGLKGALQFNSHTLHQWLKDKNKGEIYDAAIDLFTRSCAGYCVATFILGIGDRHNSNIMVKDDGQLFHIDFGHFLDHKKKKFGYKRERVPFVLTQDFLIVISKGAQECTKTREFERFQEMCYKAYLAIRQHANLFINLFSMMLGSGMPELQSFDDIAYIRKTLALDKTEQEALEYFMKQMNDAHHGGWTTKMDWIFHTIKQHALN
Chain of PI3Kα (P27986 whole entry partner): as the sequence (P27986 whole entry partner) above

Row | IC50 (PI3Kδ) [µM] | α/δ selectivity (PI3Kα) | Compound
1 | 0.105 | 12 | CS(=O)(=O)N1CCN(Cc2csc3c(-c4c(F)ccc5[nH]ccc45)nc(N4CCOCC4)nc23)CC1 [Compound 1]
2 | 0.145 | >69 | Cc1cc2c(-c3nc(N4CCOCC4)nc4c(CN5CCC(C(C)(C)O)CC5)csc34)cccc2[nH]1 [Compound 6]
3 | 0.05 | >200 | c1cc(-c2nc(N3CCOCC3)nc3c(CN4CCC(N5CCOCC5)CC4)csc23)c2cc[nH]c2c1 [Compound 9]
4 | 0.017 | 133 | O=C(CO)N1CCN(Cc2csc3c(-c4cccc5[nH]ccc45)nc(N4CCOCC4)nc23)CC1 [Compound 12]
5 | 0.052 | >192 | CC(C)(O)CN1CCN(Cc2csc3c(-c4cccc5[nH]ccc45)nc(N4CCOCC4)nc23)CC1 [Compound 13]
6 | 0.034 | >294 | CC(C)(C)N1CCN(Cc2csc3c(-c4cccc5[nH]ccc45)nc(N4CCOCC4)nc23)CC1 [Compound 15]
7 | 0.567 | 18 | Cc1oc2ccccc2c1-c1nc(N2CCOCC2)nc2c(CN3CCN(C(=O)C(C)C)CC3)csc12 [Compound 16]
8 | 0.053 | 74 | CC(C)(O)C1CCN(Cc2csc3c(-c4ccnc5[nH]ccc45)nc(N4CCOCC4)nc23)CC1 [Compound 17]
9 | 0.086 | 58 | CCC(=O)N1CCN(Cc2csc3c(-c4cnn(C)c4)nc(N4CCOCC4)nc23)CC1 [Compound 18]
10 | 0.087 | 49 | CC(C)C(=O)N1CCN(Cc2csc3c(-c4cnn(C)c4)nc(N4CCOCC4)nc23)CC1 [Compound 19]
11 | 0.066 | 54 | Cc1cn(-c2nc(N3CCOCC3)nc3c(CN4CCN(C(=O)C(C)C)CC4)csc23)c(C)n1 [Compound 20]
12 | 0.15 | 19 | Cc1nn(C)c(C)c1-c1nc(N2CCOCC2)nc2c(CN3CCN(C(=O)C(C)C)CC3)csc12 [Compound 21]
13 | 0.027 | 40 | Cc1nc(Cl)cn1-c1nc(N2CCOCC2)nc2c(CN3CCN(C(=O)C(C)C)CC3)csc12 [Compound 23]
14 | 0.099 | 10 | COc1ncc(-c2nc(N3CCOCC3)nc3c(CN4C[C@@H](C)O[C@@H](C)C4)csc23)cc1NS(C)(=O)=O [Compound 27]
15 | 0.035 | 56 | COc1ncc(-c2nc(N3CCOCC3)nc3c(CN4CCN(C(=O)OC(C)(C)C)CC4)csc23)cc1NS(C)(=O)=O [Compound 28]
16 | 0.0069 | 34 | COc1ncc(-c2nc(N3CCOCC3)nc3c(CN4CCN(C5COC5)CC4)csc23)cc1NS(C)(=O)=O [Compound 29]
17 | 0.071 | 36 | CC(C)C(=O)N1CCN(Cc2csc3c(-n4ccnc4C(F)(F)F)nc(N4CCOCC4)nc23)CC1 [Compound 30]
18 | 0.0049 | 10 | CC(C)C(=O)N1CCN(Cc2csc3c(-c4cncc(NS(C)(=O)=O)c4)nc(N4CCOCC4)nc23)CC1 [Compound 31]
19 | 0.0043 | 15 | COc1ncc(-c2nc(N3CCOCC3)nc3c(CN4CCN(C(C)=O)CC4)csc23)cc1NS(C)(=O)=O [Compound 32]
20 | 0.0042 | 51 | COc1ncc(-c2nc(N3CCOCC3)nc3c(CN4CCN(C5CCOCC5)CC4)csc23)cc1NS(C)(=O)=O [Compound 33]

Row | IC50 (PI3Kδ) [µM] | α/δ selectivity (PI3Kα) | Compound
21 | 0.0034 | 44 | COc1ncc(-c2nc(N3CCOCC3)nc3c(CN4CCN(C(C)(C)C)CC4)csc23)cc1NS(C)(=O)=O [Compound 34]
22 | 0.013 | 23 | COc1ncc(-c2nc(N3CCOCC3)nc3c(CN4CCOCC4)csc23)cc1NS(C)(=O)=O [Compound 36]
23 | 0.0289 | 38 | Cc1cn(-c2nc(N3CCOCC3)nc3c(CN4CCN(C(=O)C5CC5)CC4)csc23)c(C)n1 [Compound 37]
24 | 0.108 | 3 | COc1ncc(-c2nc(N3CCOCC3)nc3ccoc23)cc1NS(C)(=O)=O [Compound 38]
25 | 0.0092 | 159 | COc1ncc(-c2nc(N3CCOCC3)nc3c(CN4CCN(C5CCN(C)CC5)CC4)csc23)cc1NS(C)(=O)=O [Compound 39]
26 | 0.017 | 41 | COc1ncc(-c2nc(N3CCOCC3)nc3c(CN4CCN(C(=O)C5CCCCC5)CC4)csc23)cc1NS(C)(=O)=O [Compound 40]
27 | 0.0114 | 323 | COc1ncc(-c2nc(N3CCOCC3)nc3c(CN4CCC(C(C)(C)O)CC4)csc23)cc1NS(=O)(=O)c1ccccc1 [Compound 41]
28 | 0.013 | 152 | COc1ncc(-c2nc(N3CCOCC3)nc3c(CN4CCC(C(=O)NCC(F)(F)F)CC4)csc23)cc1NS(C)(=O)=O [Compound 42]
29 | 0.0061 | 23 | COc1ncc(-c2nc(N3CCOCC3)nc3c(CN4CCN(C(=O)C(C)(C)C)CC4)csc23)cc1NS(C)(=O)=O [Compound 46]
30 | 0.0035 | 9 | COc1ncc(-c2nc(N3CCOCC3)nc3c(CN4CCN(C(=O)C(C)C)CC4)csc23)cc1NS(C)(=O)=O [Compound 47]
31 | 0.0069 | 52 | COc1ncc(-c2nc(N3CCOCC3)nc3c(CN4CC5CC4CN5C4COC4)csc23)cc1NS(C)(=O)=O (stereo not drawn) [Compound 48]
32 | 0.0057 | 15 | COc1ncc(-c2nc(N3CCOCC3)nc3c(CN4CCN(C(=O)N5CCCC5)CC4)csc23)cc1NS(C)(=O)=O [Compound 49]
33 | 0.013 | 359 | COc1ncc(-c2nc(N3CCOCC3)nc3c(CN4CCC(C(C)(C)O)CC4)csc23)cc1NS(=O)(=O)C1CC1 [Compound 50]
34 | 0.036 | 252 | COc1ncc(-c2nc(N3CCOCC3)nc3c(CN4CCC(N(C)C(=O)OC(C)(C)C)CC4)csc23)cc1NS(C)(=O)=O [Compound 52]
35 | 0.019 | 110 | COc1ncc(-c2nc(N3CCOCC3)nc3c(CN4CC(C(C)(C)O)C4)csc23)cc1NS(C)(=O)=O [Compound 53]
36 | 0.0027 | 108 | COc1ncc(-c2nc(N3CCOCC3)nc3c(CN4CCC(C(C)(C)OC)CC4)csc23)cc1NS(C)(=O)=O [Compound 54]
37 | 0.0056 | 224 | COc1ncc(-c2nc(N3CCOCC3)nc3c(CN4CCC(N5C[C@@H](C)O[C@@H](C)C5)CC4)csc23)cc1NS(C)(=O)=O [Compound 55]
38 | 0.0076 | 293 | CCN(C)C1CCN(Cc2csc3c(-c4cnc(OC)c(NS(C)(=O)=O)c4)nc(N4CCOCC4)nc23)CC1 [Compound 56]
39 | 0.0028 | 103 | COc1ncc(-c2nc(N3CCOCC3)nc3c(CN4CCN(C(C)(C)C(N)=O)CC4)csc23)cc1NS(C)(=O)=O [Compound 57]

Row | Compound | IC50 (PI3Kδ) [µM] | α/δ selectivity (PI3Kα)
40 | COc1ncc(-c2nc(N3CCOCC3)nc3c(CN4CCC(N(C)C)CC4)csc23)cc1NS(C)(=O)=O [Compound 43] | 0.004 | 105
41 | COc1ncc(-c2nc(N3CCOCC3)nc3c(CN4CCN(C)CC4)csc23)cc1NS(C)(=O)=O [Compound 51] | 0.011 | 103
42 | COc1ncc(-c2nc(N3CCOCC3)nc3c(CN4CCC(N(C)C(C)C)CC4)csc23)cc1NS(C)(=O)=O [Compound 58] | 0.0054 | 150
